Source: US20250250292A1, “DELIVERY SYSTEM TO TARGET GRAM-NEGATIVE BACTERIA” (priority 2022, published 2025)
Values after ≈ are worked out from the molar mass of the structure shown. Where two headings read alike, the source gives them in different places.

What was measured:
MRC5 fibroblast cells = test: Cel Titer Glo cytotoxicity in MRC5 cells; assay type: cell-based; settings: Homo sapiens
Experimental: In order to facilitate development of the TPP containing antibiotics, a series of TPP linkers were prepared and tested for their toxicity in MRC5 cells. This library of linkers are shown below: The toxicity of these linkers in MRC5 cells after a 72 hour incubation.

Pseudomonas aeruginosa [1] = settings: McCarthy, 2021; cited from earlier work
Acinetobacter baumannii [2] = settings: McCarthy, 2021; cited from earlier work
E. faecalis = settings: McCarthy, 2021; cited from earlier work
[3] = test system: Escherichia coli (BL21(DE3)); test: Resazurin blue (alamarBlue) bacterial cell viability assay, gram-negative model; assay type: cell-based
Experimental: (§1) To compare the efficacy of pleuromutilin and the pleuromulin-TPP^+ ester pro-drug (AP-8-159B) gram-negative and gram-positive pathogen model system were used. Thus, Escherichia coli (BL21(DE3) from New England Biolabs) was used as a model strain for gram-negative bacteria and clinical isolates of Staphylococcus aureus were used as the model system for gram-positive bacteria (NR-49120, NR-46413 obtained from BEI Resources). All strains were cultured at 37° C. overnight in Luria Bertani (LB) (BD 244610). For testing the drug sensitivity, bacteria were grown in RPMI medium containing 10% fetal bovine serum or human serum.
A resazurin blue assay (alamarBlue®) (Toté et al., 2009; Costa et al., 2021; Wannigama et al., 2019; Travnickova et al., 2019) was used to evaluate bacterial cell viability. Resazurin (7-hydroxy-10-oxidophenoxazin-10-ium-3-one, sodium) is a blue fluorogenic dye used as a redox indicator in cell viability and proliferation assays for bacteria, yeast, or mammalian cells. The resazurin assay protocol is based on the reduction of oxidized non-fluorescent blue resazurin to a red fluorescent dye (resorufin), where NADPH dehydrogenase, without being bound by theory, is probably responsible for the transference of electrons from NADPH+H^+ to resazurin (Costa et al., 2021). The amount of resorufin produced is directly proportional to the number of living cells. This simple fluorometric-based assay rapidly quantifies metabolically active bacterial cells. Two controls were added to the plate to confirm the correct response from the resazurin. The positive control used evaluated media alone without bacterial culture to confirm there was no change from blue to red. The negative control evaluated the bacteria culture alone without added compound to provide a 100% growth control (red). Thus, resazurin sodium salt (Sigma R7017) was added to pleuromutilin or pleuromutilin-TPP+ prodrug treated bacterial samples at a final concentration of 0.02% and incubated for 8 hours at 37° C. Changes in fluorescence were measured on the Biotek Synergy 2 plate reader after an 8-hour incubation at 37° C. using an excitation filter range of 530-570 nm and an emission filter range of 590-620 nm. An increase in fluorescence intensity corresponded to bacterial growth and was quantified by comparison with untreated bacterial control samples. The ratio of (TThreshold (untreated)/TThreshold (prodrug-treated)) (where T=time) was used to quantify the change in bacterial growth. To minimize inter-experimental variations, TThreshold values were corrected by subtracting untreated control cultures to reach minimum detectable fluorescence. At the end of the experiment, wells were visualized for changes in color from blue (inviable bacteria) to red (viable bacteria) and a picture was taken.

[4] = test system: clinical isolates of Staphylococcus aureus (NR-49120, NR-46413); test: Resazurin blue (alamarBlue) bacterial cell viability assay, gram-positive model; assay type: cell-based; settings: clinical strains of Staphylococcus aureus
Experimental: as §1
A resazurin blue assay (alamarBlue®) (Toté et al., 2009; Costa et al., 2021; Wannigama et al., 2019; Travnickova et al., 2019) was used to evaluate bacterial cell viability. Resazurin (7-hydroxy-10-oxidophenoxazin-10-ium-3-one, sodium) is a blue fluorogenic dye used as a redox indicator in cell viability and proliferation assays for bacteria, yeast, or mammalian cells. […] This simple fluorometric-based assay rapidly quantifies metabolically active bacterial cells. […] The positive control used evaluated media alone without bacterial culture to confirm there was no change from blue to red. The negative control evaluated the bacteria culture alone without added compound to provide a 100% growth control (red). […] Changes in fluorescence were measured on the Biotek Synergy 2 plate reader after an 8-hour incubation at 37° C. using an excitation filter range of 530-570 nm and an emission filter range of 590-620 nm. An increase in fluorescence intensity corresponded to bacterial growth and was quantified by comparison with untreated bacterial control samples. The ratio of (TThreshold (untreated)/TThreshold (prodrug-treated)) (where T=time) was used to quantify the change in bacterial growth. To minimize inter-experimental variations, TThreshold values were corrected by subtracting untreated control cultures to reach minimum detectable fluorescence. […]

Acinetobacter baumannii [5] = test: Antibacterial in vitro activity (MIC); assay type: cell-based
Experimental: (§2) These compounds were tested in an E. coli and Klebsiella strain to determine the change in OD600 as a function of concentration (FIG. 5, E. coli; FIG. 6, Klebsiella). The antibacterial activity of the compounds was further analyzed and activity was determine a variety of different bacterial strains.

Citrobacter freundii = test: Antibacterial in vitro activity (MIC); assay type: cell-based
Experimental: as §2

Enterobacter cloacae = test: Antibacterial in vitro activity (MIC); assay type: cell-based
Experimental: as §2

Escherichia coli = test: Antibacterial in vitro activity (MIC); assay type: cell-based
Experimental: as §2

Haemophilus influenzae = test: Antibacterial in vitro activity (MIC); assay type: cell-based
Experimental: as §2

Klebsiella pneumoniae = test: Antibacterial in vitro activity (MIC); assay type: cell-based
Experimental: as §2

Proteus mirabilis = test: Antibacterial in vitro activity (MIC); assay type: cell-based
Experimental: as §2

Pseudomonas aeruginosa [6] = test: Antibacterial in vitro activity (MIC); assay type: cell-based
Experimental: as §2

Salmonella typhimurium = test: Antibacterial in vitro activity (MIC); assay type: cell-based; settings: Salmonella enterica, ATCC 13311 / TYPHIMURIUM; isolate D0109, ATCC13311
Experimental: as §2

Staphylococcus aureus = test: Antibacterial in vitro activity (MIC); assay type: cell-based
Experimental: as §2

Streptococcus pneumoniae = test: Antibacterial in vitro activity (MIC); assay type: cell-based
Experimental: as §2

Enterococcus faecium = test: Antibacterial in vitro activity (MIC); assay type: cell-based; settings: isolate D0459, Clinical isolate
Experimental: as §2

Streptococcus agalactiae = test: Antibacterial in vitro activity (MIC); assay type: cell-based; settings: isolate B0790, Clinical isolate
Experimental: as §2

Streptococcus pyogenes = test: Antibacterial in vitro activity (MIC); assay type: cell-based; settings: isolate B0780, Clinical isolate
Experimental: as §2

[7] = Table 1, TPP+ linkers, MRC5 cells, 72-hour incubation
[8] = ATCC15473, isolate B0473, ATCC 15473
[9] = isolate B1062, Clinical isolate
[10] = isolate B0271, Clinical isolate
[11] = isolate D1089, Clinical isolate
[12] = isolate D1090, Clinical isolate
[13] = ATCC25922, isolate B0001, ATCC 25922, read-out: MIC
[14] = isolate B0159, Efflux pump deficient (ΔtolC)
[15] = isolate B0429, Efflux pump deficient (ΔacrAB)
[16] = isolate B1098, Clinical isolate, read-out: MIC
[17] = isolate D0120, Clinical isolate, read-out: MIC
[18] = ATCC49247, isolate B0035, ATCC 49247
[19] = isolate B0126, Clinical isolate
[20] = ATCC11228, isolate B0032, ATCC 11228
[21] = ATCC29519, isolate D0033, ATCC 29519
[22] = ATCC43816, isolate B0305, ATCC 43816
[23] = Proteus mirabilis, isolate D1301, Clinical isolate, read-out: MIC
[24] = isolate D1300, Clinical isolate
[25] = ATCC27853, isolate B0015, ATCC 27853
[26] = ATCC29511, isolate B0016, ATCC 29511
[27] = isolate B0367, Clinical isolate
[28] = ATCC49951, isolate B0009, ATCC 49951
[29] = isolate B0029, Clinical isolate
[30] = isolate B0078, Clinical isolate
[31] = isolate B0415, Clinical isolate

With OCCCCCC[P+](c1ccccc1)(c1ccccc1)c1ccccc1 [AP-5-531] the IC50 (MRC5 fibroblast cells; [7]) was over 90 µM.
With O=C(O)CCCCC[P+](c1ccccc1)(c1ccccc1)c1ccccc1 [AP-3-195] the IC50 (MRC5 fibroblast cells; [7]) was over 90 µM.
CC(C)(O)C[P+](c1ccccc1)(c1ccccc1)c1ccccc1 [AP-7-253] gave an IC50 (MRC5 fibroblast cells; [7]) of over 90 µM.
Compound OCCC[P+](c1ccccc1)(c1ccccc1)c1ccccc1 [AP-7-242] has an IC50 (MRC5 fibroblast cells; [7]) of over 90 µM.
For C=C[C@]1(C)C[C@@H](OC(=O)CS[C@@H]2CC[C@@H](N)C[C@H]2O)[C@]2(C)[C@H](C)CC[C@]3(CCC(=O)[C@H]32)[C@@H](C)[C@@H]1O [Lefamulin], the “antibacterial activity” value (Pseudomonas aeruginosa [1]) is given as “lacks activity”, the “antibacterial activity” value (Acinetobacter baumannii [2]) is given as “lacks activity” and the “antibacterial activity” value (E. faecalis) is given as “lacks activity”.
For C=C[C@]1(C)C[C@@H](OC(=O)CO)[C@]2(C)[C@H](C)CC[C@]3(CCC(=O)[C@H]32)[C@@H](C)[C@@H]1O [Pleuromutilin], the cytotoxicity potency ([3]; E Coli BL21 (DE3)) was 25 µg/mL, the “cytotoxic effect” value ([3]; E. coli BL21 (DE3)) was “much less cytotoxic” and the “cytotoxic effect” value [4] was “potent cytotoxic agents”. The IC50 (MRC5 fibroblast cells; Table 2, cytotoxicity in MRC5 fibroblast cells) was over 90 µM, the MIC (Acinetobacter baumannii [5]; [8]) was over 128 µg/mL and the MIC (Acinetobacter baumannii [5]; [9]) was over 128 µg/mL. It also gave an MIC (Citrobacter freundii; [10]) of over 128 µg/mL, an MIC (Citrobacter freundii; isolate B0286, AKH Vienna) of over 128 µg/mL and an MIC (Enterobacter cloacae; [11]) of over 128 µg/mL. It also gave an MIC (Enterobacter cloacae; [12]) of over 128 µg/mL, an MIC (Escherichia coli; [13]) of 128 µg/mL (≈ 338 µM) and an MIC (Escherichia coli; isolate B0158, AcrAB-TolC efflux pump WT, read-out: MIC) of over 128 µg/mL. The MIC (Escherichia coli; [14]) was 0.5 µg/mL (≈ 1.32 µM), the MIC (Escherichia coli; [15]) was 32 µg/mL (≈ 84.5 µM) and the MIC (Escherichia coli; [16]) was over 128 µg/mL. It also gave an MIC (Escherichia coli; [17]) of over 128 µg/mL, an MIC (Haemophilus influenzae; [18]) of 4 µg/mL (≈ 10.6 µM) and an MIC (Haemophilus influenzae; [19]) of 1 µg/mL (≈ 2.64 µM). It also gave an MIC (Klebsiella pneumoniae; [20]) of over 128 µg/mL, an MIC (Klebsiella pneumoniae; [21]) of over 128 µg/mL and an MIC (Klebsiella pneumoniae; [22]) of over 128 µg/mL. For the same compound, the MIC (Proteus mirabilis; [23]) was over 128 µg/mL, the MIC (Proteus mirabilis; [24]) was over 128 µg/mL and the MIC (Pseudomonas aeruginosa [6]; [25]) was over 128 µg/mL. It also gave an MIC (Pseudomonas aeruginosa [6]; [26]) of over 128 µg/mL, an MIC (Pseudomonas aeruginosa [6]; [27]) of over 128 µg/mL and an MIC (Salmonella typhimurium) of 128 µg/mL (≈ 338 µM). The MIC (Staphylococcus aureus; [28]) was 1 µg/mL (≈ 2.64 µM), the MIC (Staphylococcus aureus; [29]) was 1 µg/mL (≈ 2.64 µM) and the MIC (Streptococcus pneumoniae; [30]) was 4 µg/mL (≈ 10.6 µM). For the same compound, the MIC (Streptococcus pneumoniae; [31]) was 1 µg/mL (≈ 2.64 µM).
O=C(OCCOCCO)c1ccc([P+](c2ccccc2)(c2ccccc2)c2ccccc2)cc1 [AP-8-99-2] showed an IC50 (MRC5 fibroblast cells; [7]) of over 90 µM.
C[C@H]1c2cccc(O)c2C(=O)C2=C(O)[C@]3(O)C(=O)C(C(N)=O)=C(O)[C@@H](N(C)C)[C@@H]3[C@@H](O)[C@@H]21 [Doxycycline] gave an MIC (Acinetobacter baumannii [5]; [8]) of 0.5 µg/mL (≈ 1.13 µM), an MIC (Acinetobacter baumannii [5]; [9]) of at most 0.03 µg/mL and an MIC (Citrobacter freundii; [10]) of 8 µg/mL (≈ 18 µM). The MIC (Citrobacter freundii; isolate B0286, AKH Vienna) was 2 µg/mL (≈ 4.5 µM), the MIC (Enterobacter cloacae; [11]) was over 32 µg/mL and the MIC (Enterobacter cloacae; [12]) was 2 µg/mL (≈ 4.5 µM). The MIC (Enterococcus faecium) was 32 µg/mL (≈ 72 µM), the MIC (Escherichia coli; [13]) was 0.5 µg/mL (≈ 1.13 µM) and the MIC (Escherichia coli; [14]) was 0.25 µg/mL (≈ 0.563 µM). For the same compound, the MIC (Escherichia coli; [15]) was 0.25 µg/mL (≈ 0.563 µM), the MIC (Escherichia coli; [16]) was 16 µg/mL (≈ 36 µM) and the MIC (Escherichia coli; [17]) was 2 µg/mL (≈ 4.5 µM). The MIC (Haemophilus influenzae; [18]) was 0.12 µg/mL (≈ 0.27 µM), the MIC (Haemophilus influenzae; [19]) was 0.12 µg/mL (≈ 0.27 µM) and the MIC (Klebsiella pneumoniae; [20]) was 0.25 µg/mL (≈ 0.563 µM). For the same compound, the MIC (Klebsiella pneumoniae; [21]) was 1 µg/mL (≈ 2.25 µM), the MIC (Klebsiella pneumoniae; [22]) was 1 µg/mL (≈ 2.25 µM) and the MIC (Proteus mirabilis; [23]) was 32 µg/mL (≈ 72 µM). It also gave an MIC (Proteus mirabilis; [24]) of 32 µg/mL (≈ 72 µM), an MIC (Pseudomonas aeruginosa [6]; [25]) of 16 µg/mL (≈ 36 µM) and an MIC (Pseudomonas aeruginosa [6]; [26]) of 32 µg/mL (≈ 72 µM). It also gave an MIC (Pseudomonas aeruginosa [6]; [27]) of over 32 µg/mL, an MIC (Salmonella typhimurium) of 0.5 µg/mL (≈ 1.13 µM) and an MIC (Staphylococcus aureus; [28]) of 0.12 µg/mL (≈ 0.27 µM). For the same compound, the MIC (Staphylococcus aureus; [29]) was 8 µg/mL (≈ 18 µM), the MIC (Staphylococcus aureus; isolate B1325, Clinical isolates) was 4 µg/mL (≈ 9 µM) and the MIC (Streptococcus agalactiae) was 0.12 µg/mL (≈ 0.27 µM). The MIC (Streptococcus pneumoniae; [30]) was 16 µg/mL (≈ 36 µM), the MIC (Streptococcus pneumoniae; [31]) was 0.12 µg/mL (≈ 0.27 µM) and the MIC (Streptococcus pyogenes) was 16 µg/mL (≈ 36 µM).
